From US8865725B2, “Substituted imidazopyrimidin-5(6H)-ones as allosteric modulators of MGLUR5 receptors” (Vanderbilt University, priority 2011, dated 2014)
pEC50: −log10 of the molar value. Read-outs that look alike come from different tables or passages of the source.

Key:
human mGluR5a receptor = human mGluR5a receptor (Homo sapiens, UniProt P41594); assay: Cell-based functional assay (Ca2+ mobilization, FDSS) for positive allosteric modulation of mGluR5; conditions: for pEC50 / EC50: potentiation in presence of EC20 glutamate; for Emax: maximum % effect in concentration-response curve, as percent of response to maximally effective glutamate concentration
Chain of human mGluR5a receptor (P41594 21-1180 isoform P41594-2 limits assumed): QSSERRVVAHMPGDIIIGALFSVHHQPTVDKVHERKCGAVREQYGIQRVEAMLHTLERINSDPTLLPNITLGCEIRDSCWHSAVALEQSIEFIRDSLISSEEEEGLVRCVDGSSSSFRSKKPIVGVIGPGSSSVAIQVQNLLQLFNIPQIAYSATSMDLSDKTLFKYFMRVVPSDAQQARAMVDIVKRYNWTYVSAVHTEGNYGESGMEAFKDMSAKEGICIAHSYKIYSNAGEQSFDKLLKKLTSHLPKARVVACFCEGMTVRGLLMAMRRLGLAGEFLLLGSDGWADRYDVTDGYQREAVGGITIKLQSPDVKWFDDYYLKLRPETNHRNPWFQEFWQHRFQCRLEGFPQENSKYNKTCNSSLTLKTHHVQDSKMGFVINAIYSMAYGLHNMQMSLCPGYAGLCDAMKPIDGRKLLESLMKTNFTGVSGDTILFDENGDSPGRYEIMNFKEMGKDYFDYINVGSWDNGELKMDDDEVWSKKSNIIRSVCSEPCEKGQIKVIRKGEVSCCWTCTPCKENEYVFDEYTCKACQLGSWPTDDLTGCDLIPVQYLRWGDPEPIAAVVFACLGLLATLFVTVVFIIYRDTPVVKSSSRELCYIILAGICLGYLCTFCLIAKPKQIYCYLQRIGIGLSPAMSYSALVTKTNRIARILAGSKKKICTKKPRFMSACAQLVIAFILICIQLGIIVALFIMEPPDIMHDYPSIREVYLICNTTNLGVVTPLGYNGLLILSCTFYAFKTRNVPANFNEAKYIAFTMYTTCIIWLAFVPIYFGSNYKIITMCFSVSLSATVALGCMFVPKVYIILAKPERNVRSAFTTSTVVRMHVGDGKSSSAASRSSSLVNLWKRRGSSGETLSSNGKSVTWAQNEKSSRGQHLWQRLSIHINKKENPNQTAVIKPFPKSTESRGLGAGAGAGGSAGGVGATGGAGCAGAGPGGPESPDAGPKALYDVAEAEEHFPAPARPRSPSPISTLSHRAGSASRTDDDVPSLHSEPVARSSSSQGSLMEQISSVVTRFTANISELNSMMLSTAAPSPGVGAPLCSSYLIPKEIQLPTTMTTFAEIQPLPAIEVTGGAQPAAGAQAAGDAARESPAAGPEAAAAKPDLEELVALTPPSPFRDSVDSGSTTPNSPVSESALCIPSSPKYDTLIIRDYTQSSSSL
Method: The mGluR5 activity was determined using the metabotropic glutamate receptor activity assays in human embryonic kidney cells as described herein, wherein the human embryonic kidney cells were transfected with human mGluR5. The compounds in Table I were synthesized with methods identical or analogous to those shown herein. The Synthetic Route Reference indicated in Table I refers to the Reaction Scheme number described above. The requisite starting materials were commercially available, described in the literature, or readily synthesized by one skilled in the art of organic synthesis.
Human mGluR5a cDNA in pCMV6-XL6 mammalian expression plasmid was purchased from OriGene Technologies, Inc. (catalogue number SC326357) and subcloned into pcDNA3.1(−). […] Monoclones were named for the species (“H” for human) plus the location on the plate (e.g. “10H”).
HEK cells transfected with the human mGluR5a receptor (H10H or H12H cell line) were plated at 15,000 cells/well in clear-bottomed poly-D-lysine-coated assay plates (BD Falcon) in glutamate-glutamine-free growth medium and incubated overnight at 37° C. and 5% CO2. Cell-lines used were either the H10H or H12H cell-lines expressing the human mGluR5 receptor. The following day, the growth medium was removed and the cells were washed with assay buffer containing 1× Hank's balanced salt solution (Invitrogen, Carlsbad, Calif.), 20 mM HEPES, 2.5 mM probenecid, pH 7.4 and left with 20 μL of this reagent. Following this step, the cells were loaded with calcium indicator dye, fluo-4 AM, to a final concentration of 2 μM and incubated for 40-45 min at 37° C. The dye solution was removed and replaced with assay buffer. Cell plates were held for 10-15 min at room temperature and were then loaded into the Functional Drug Screening System 6000 (FDSS 6000, Hamamatsu, Japan).
After establishment of a fluorescence baseline for about 3 seconds, the compounds of the present invention were added to the cells, and the response in cells was measured. 2.3 minutes later an EC20 concentration of the mGluR5 receptor agonist glutamate was added to the cells, and the response of the cells was measured for about 1.7 minutes. All test compounds were dissolved and diluted to a concentration of 10 mM in 100% DMSO and then serially diluted into assay buffer for a 2× stock solution in 0.6% DMSO; stock compounds were then added to the assay for a final DMSO concentration of 0.3% after the first addition to the assay well. Calcium fluorescence measures were recorded as fold over basal fluorescence; raw data was then normalized to the maximal response to glutamate.
The concentration-response curves of compounds of the present invention, obtained in the presence of EC20 of mGluR5 receptor agonist glutamate to determine positive allosteric modulation, were generated using Microsoft Excel with IDBS XLfit add-ins. The raw data file containing all time points was used as the data source in the analysis template. This was saved by the FDSS as a tab-delimitted text file. Data were normalized using a static ratio function (F/F0) for each measurement of the total 350 values per well divided by each well's initial value. Data was then reduced as to peak amplitudes (Max—Initial Min) using a time range that starts approximately 1 second after the glutamate EC20 addition and continues for approximately 40 seconds. This is sufficient time to capture the peak amplitude of the cellular Calcium response. Individual amplitudes were expressed as % EMax by multiplying each amplitude by 100 and then dividing the product by the mean of the amplitudes derived from the glutamate ECMax-treated wells. pEC50 values for test compounds were generated by fitting the normalized values versus the log of the test compound concentration (in mol/L) using a 4 parameter logistic equation where none of the parameters were fixed.

[1] = HEK cells transfected with human mGluR5a (H10H or H12H), read-out: EC50
[2] = HEK cells transfected with human mGluR5a (H10H or H12H), concentration in mol/L, read-out: pEC50 (converted)
[3] = EC50 (nM), HEK cells transfected with human mGluR5a (H10H or H12H)
[4] = pEC50, HEK cells transfected with human mGluR5a (H10H or H12H), concentration in mol/L

Compound	pEC50 (human mGluR5a receptor; [1])	Emax (human mGluR5a receptor) [%]	melting point [°C]	EC50 (human mGluR5a receptor; [2]) [nM]	EC50 (human mGluR5a receptor; [3]) [nM]	pEC50 (human mGluR5a receptor; [4])
O=c1n(-c2cccc(F)c2)ccc2nc(COc3ccccc3)cn12 [compound 4]		68	123.4		525	6.29
O=c1n(-c2ccc(F)c(F)c2)ccc2nc(COc3ccccc3)cn12 [compound 5]		79	296.6	214	228	
O=c1n(-c2ccc(F)cc2)ccc2nc(COc3cccc(F)c3)cn12 [compound 6]		73	141.1	214	224	
O=c1n(Cc2ccccc2)ccc2nc(COc3ccccc3)cn12 [compound 7]	5.90	80	122.3			
Cc1cccc(OCc2cn3c(=O)n(-c4ccc(F)cc4)ccc3n2)c1 [compound 12]	6.33	33		513		
N#Cc1cccc(OCc2cn3c(=O)n(-c4ccc(F)cc4)ccc3n2)c1 [compound 13]	6.46	40	165			
O=c1n(-c2ccc(F)cc2)ccc2nc(COc3ccc(F)cc3)cn12 [compound 14]	6.52	72	163.4	309		
O=c1n(-c2cccc(C(F)(F)F)c2)ccc2nc(COc3ccc(F)cc3)cn12 [compound 16]	5.89	50	> 300	1170		
O=c1n(CC2CC2)ccc2nc(COc3ccccc3)cn12 [compound 17]		51	102.1	1050	1100	
O=c1n(-c2ccc(F)cc2)ccc2nc(COc3ccccn3)cn12 [compound 18]	5.60	66	282.3	2140		
O=c1n(-c2cccc(C(F)(F)F)c2)ccc2nc(COc3ccc(Cl)cc3)cn12 [compound 21]	< 5.00		141.8			
N#Cc1ccc(OCc2cn3c(=O)n(-c4cccc(C(F)(F)F)c4)ccc3n2)cc1 [compound 22]	< 5.00		189.4			
O=C1N(c2cccc(F)c2)CCc2nc(COc3ccccc3)cn21 [compound 32]		70	> 300	245	226	
O=C1N(c2ccc(F)cc2)CCc2nc(COc3cccc(F)c3)cn21 [compound 34]	7.19	73	141.1			7.17
Cc1nc(N2CCc3nc(COc4ccccc4)cn3C2=O)ccc1F [compound 38]	6.78	72				6.75

Further lines, with some results ahead:

pEC50 (human mGluR5a receptor; [1])	Emax (human mGluR5a receptor) [%]	melting point [°C]	EC50 (human mGluR5a receptor; [2]) [nM]	Compound	EC50 (human mGluR5a receptor; [3]) [nM]	pEC50 (human mGluR5a receptor; [4])
< 4.52	19			O=c1[nH]ccc2nc(COc3ccccc3)cn12 [compound 1, 2-phenoxymethyl-6H-imidazo[1,2-c]pyrimidin-5-one]		
< 5.00	69	130.9		Cn1ccc2nc(COc3ccccc3)cn2c1=O [compound 2]		
6.41	79	142.3	269	O=c1n(-c2ccc(F)cc2)ccc2nc(COc3ccccc3)cn12 [compound 3]		
5.64	43	> 300	2190	Cc1cccc(-n2ccc3nc(COc4ccccc4)cn3c2=O)n1 [compound 8]		
6.31	75			O=c1n(-c2ccc(F)cn2)ccc2nc(COc3ccccc3)cn12 [compound 9]		
6.53	70	199.5		Cc1nc(-n2ccc3nc(COc4ccccc4)cn3c2=O)ccc1F [compound 10]		
5.88	59	209.4	1150	Cc1ccc(-n2ccc3nc(COc4ccccc4)cn3c2=O)nc1 [compound 11]		
5.08	51	239.4	> 10000	Cc1ccnc(-n2ccc3nc(COc4ccccc4)cn3c2=O)c1 [compound 15]		
< 4.52	59	> 300		O=c1n(-c2ccc(F)cc2)ccc2nc(COc3cccnc3)cn12 [compound 19]		
7.11	73	110.7	85.1	O=c1n(-c2ccc(F)cc2)cc(F)c2nc(COc3ccccc3)cn12 [compound 20]		
6.49	60	203.1	331	Cc1cc(-n2ccc3nc(COc4ccccc4)cn3c2=O)ncc1F [compound 23]		
6.70	64	136	209	CN(C)c1cccc(-n2ccc3nc(COc4ccccc4)cn3c2=O)n1 [compound 24]		
6.24	46	171.2		COc1nccc(-n2ccc3nc(COc4ccccc4)cn3c2=O)n1 [compound 25, 6-(2-methoxy-pyrimidin-4-yl)-2-phenoxymethyl-6H-imidazo[1,2-c]pyrimidin-5-one]		
< 4.52	16	146.9		Cc1cn(-c2ccc(F)cc2)c(=O)n2cc(COc3ccccc3)nc12 [compound 27, 6-(4-fluoro-phenyl)-8-methyl-2-phenoxymethyl-6H-imidazo[1,2-c]pyrimidin-5-one]		
5.73	49	143.6	1480	Cc1cc2nc(COc3ccccc3)cn2c(=O)n1-c1ccc(F)cc1 [compound 28]		
< 4.52	17	170.3		O=c1n(-c2ccc(F)cc2)ccc2nc(COc3ccccc3)c(Cl)n12 [compound 29, 3-chloro-6-(4-fluoro-phenyl)-2-phenoxymethyl-6H-imidazo[1,2-c]pyrimidin-5-one]		
7.01	71	195.2	102	O=C1N(c2ccc(F)cc2)CCc2nc(COc3ccccc3)cn21 [compound 31]		
7.01	75	165.4	102	O=C1N(c2ccc(F)c(F)c2)CCc2nc(COc3ccccc3)cn21 [compound 33]		
6.73	68	182.3	170	O=C1N(c2ccc(F)cc2)CCc2nc(COc3ccc(F)cc3)cn21 [compound 35, 2-(4-fluoro-phenoxymethyl)-6-(4-fluoro-phenyl)-7,8-dihydro-6H-imidazo[1,2-c]pyrimidin-5-one]		
6.33	63			Cc1ccc(N2CCc3nc(COc4ccccc4)cn3C2=O)nc1 [compound 36, 6-(5-methyl-pyridin-2-yl)-2-phenoxymethyl-7,8-dihydro-6H-imidazo[1,2-c]pyrimidin-5-one]		
6.72	48	169.3	204	Cc1cccc(OCc2cn3c(n2)CCN(c2ccc(F)cc2)C3=O)c1 [compound 37, 6-(4-fluoro-phenyl)-2-m-tolyloxymethyl-7,8-dihydro-6H-imidazo[1,2-c]pyrimidin-5-one]		
6.41	64	135	316	O=C1N(c2ccc(F)cn2)CCc2nc(COc3ccccc3)cn21 [compound 39]		
